Among the data in ChEMBL document CHEMBL1137587, “MCH-R1 antagonists based on an arginine scaffold: SAR studies on the amino-terminus” (Bioorg Med Chem Lett, 2007) are IC50 values, retold here.

The target of the assay is Melanin-concentrating hormone receptor 1 (Homo sapiens, UniProt Q99705). Briefly: Functional antagonism of MCH-R1 expressed in HEK293 cells. It counts as cell-based.
Melanin-concentrating hormone receptor 1, sequence (Q99705 whole entry): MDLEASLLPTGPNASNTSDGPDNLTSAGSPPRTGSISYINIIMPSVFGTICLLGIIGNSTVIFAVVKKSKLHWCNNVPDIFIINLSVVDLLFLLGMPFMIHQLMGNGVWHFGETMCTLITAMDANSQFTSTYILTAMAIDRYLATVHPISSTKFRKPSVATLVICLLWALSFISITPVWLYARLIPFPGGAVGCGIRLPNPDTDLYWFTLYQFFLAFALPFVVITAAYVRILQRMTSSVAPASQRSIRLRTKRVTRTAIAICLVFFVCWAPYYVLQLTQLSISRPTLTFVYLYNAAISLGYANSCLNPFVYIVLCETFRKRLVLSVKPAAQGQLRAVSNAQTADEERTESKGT

In the case of `N=C(N)NCCC[C@@H](NC(=O)C1c2ccccc2-c2ccccc21)C(=O)NCc1ccc(C(F)(F)F)cc1`, inhibition was half-maximal at 0.005 µM (IC50). On to `N=C(N)NCCC[C@@H](NC(=O)c1ccc2ccccc2c1)C(=O)NCc1ccc(C(F)(F)F)cc1`, for which half-maximal inhibition (IC50) was put at 0.212 µM. The compound `N=C(N)NCCC[C@@H](NC(=O)c1csc2ccccc12)C(=O)NCc1ccc(C(F)(F)F)cc1` displayed an IC50 of 0.952 µM. The same measure for `N=C(N)NCCC[C@@H](NC(=O)Cc1csc2ccccc12)C(=O)NCc1ccc(C(F)(F)F)cc1`: 1.01 µM. The same measure for `N=C(N)NCCC[C@@H](NC(=O)c1cc2ccccc2o1)C(=O)NCc1ccc(C(F)(F)F)cc1`: 0.313 µM; for `N=C(N)NCCC[C@@H](NC(=O)c1cc2cc(F)ccc2[nH]1)C(=O)NCc1ccc(C(F)(F)F)cc1`: 0.025 µM; for `N=C(N)NCCC[C@@H](NC(=O)C(c1ccccc1)c1ccccc1)C(=O)NCc1ccc(C(F)(F)F)cc1`: 0.112 µM. Compound `N=C(N)NCCC[C@@H](NC(=O)C1c2ccccc2Cc2ccccc21)C(=O)NCc1ccc(C(F)(F)F)cc1` had an IC50 of 0.763 µM. In turn, `N=C(N)NCCC[C@@H](NC(=O)c1ccc(F)c2ccccc12)C(=O)NCc1ccc(C(F)(F)F)cc1` registered an IC50 of 0.311 µM.

In turn, `N=C(N)NCCC[C@@H](NC(=O)c1ccnc2ccccc12)C(=O)NCc1ccc(C(F)(F)F)cc1` registered an IC50 of 1.03 µM. Consider `N=C(N)NCCC[C@@H](NC(=O)c1cc2ccccc2cn1)C(=O)NCc1ccc(C(F)(F)F)cc1`, for which the midpoint of inhibition, the IC50, lay at 1.81 µM.

`N=C(N)NCCC[C@@H](NC(=O)Cc1cccc2ccccc12)C(=O)NCc1ccc(C(F)(F)F)cc1` gave an IC50 of 0.243 µM. In turn, `COc1ccc2cc(C(=O)N[C@H](CCCNC(=N)N)C(=O)NCc3ccc(C(F)(F)F)cc3)ccc2c1` came in with an IC50 of 0.443 µM.

Compound `N=C(N)NCCC[C@@H](NC(=O)c1cc2ccccc2[nH]1)C(=O)NCc1ccc(C(F)(F)F)cc1` registered an IC50 of 0.02 µM. For `N=C(N)NCCC[C@@H](NC(=O)c1cc2ccccc2s1)C(=O)NCc1ccc(C(F)(F)F)cc1`, half-maximal inhibition (IC50) was put at 0.045 µM. In the case of `N=C(N)NCCC[C@@H](NC(=O)c1cccc2ccccc12)C(=O)NCc1ccc(C(F)(F)F)cc1` it was 1.8 µM; in that of `COc1cccc2cc(C(=O)N[C@H](CCCNC(=N)N)C(=O)NCc3ccc(C(F)(F)F)cc3)oc12`, 0.622 µM; in that of `COc1ccc2[nH]c(C(=O)N[C@H](CCCNC(=N)N)C(=O)NCc3ccc(C(F)(F)F)cc3)cc2c1`, 0.078 µM. In the case of `N=C(N)NCCC[C@@H](NC(=O)Cc1cc2ccccc2[nH]1)C(=O)NCc1ccc(C(F)(F)F)cc1` it was 0.512 µM; in that of `N=C(N)NCCC[C@@H](NC(=O)c1cnc2ccccc2c1)C(=O)NCc1ccc(C(F)(F)F)cc1`, 0.096 µM. In the case of `N=C(N)NCCC[C@@H](NC(=O)C1c2ccccc2Oc2ccccc21)C(=O)NCc1ccc(C(F)(F)F)cc1` it was 0.004 µM. Compound `N=C(N)NCCC[C@@H](NC(=O)c1ccc2ccccc2n1)C(=O)NCc1ccc(C(F)(F)F)cc1` returned a concentration for half-maximal inhibition (IC50) of 0.904 µM.
